For test [1], the system named is TNFα production in LPS-stimulated human monocytes. Briefly: Cot Monocyte TNFα Cell Based Assay. Conditions: Homo sapiens, Monocyte, read-out: EC50 TNF. In a few lines:
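Human monocytes (5,000 cells/well) pretreated with compound for 1 hour at 37° C (0.5% DMSO), then stimulated with 50 pg/ml LPS for 4 hours. Total TNFα measured by TR-FRET after overnight antibody incubation at room temp, expressed as percent of control between unstimulated and stimulated cells.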

The target of test [2] is T1, human Cot catalytic domain (30-397 amino acids) (Homo sapiens, UniProt P41279).
T1 construct: Purified recombinant human Cot catalytic domain (30-397 amino acids) was purchased from Cama Biosciences; purchased Cama Biosciences (so in the source)
The experiment in a line: High Throughput Cot Biochemical Assay (KinEASE TR-FRET). Conditions: read-out: IC50 HTRF. The essentials: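 Recombinant human Cot catalytic domain (aa 30-397), 5 nM, with 1 μM STK3 peptide and 400 μM ATP in MOPS pH 7.0 buffer with MgOAc, DTT, BSA, NP-40, glycerol, 0.1% DMSO. Phosphorylated XL665-peptide detected by Eu-[…] antibody TR-FRET.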
On the technique in general: In TR-FRET formats the signal depends on donor and acceptor labels being close together.

[3] abbreviates: TNFα in LPS-stimulated human monocytes.
[4] abbreviates: Cot biochemical HTRF (KinEASE TR-FRET) assay.
[5] abbreviates: Cot KinEASE TR-FRET (HTRF) biochemical assay, 400 μM ATP.
Setting [6] is: LPS-stimulated human monocytes, TNFα TR-FRET.
Where [7] appears, read: Cot KinEASE TR-FRET, 400 μM ATP.

Each structure is given as a SMILES string. Where two headings read alike, the source gives them in different places. A value given as a limit tells only on which side of the number the result lay.

T1 sequence (P41279 30-397): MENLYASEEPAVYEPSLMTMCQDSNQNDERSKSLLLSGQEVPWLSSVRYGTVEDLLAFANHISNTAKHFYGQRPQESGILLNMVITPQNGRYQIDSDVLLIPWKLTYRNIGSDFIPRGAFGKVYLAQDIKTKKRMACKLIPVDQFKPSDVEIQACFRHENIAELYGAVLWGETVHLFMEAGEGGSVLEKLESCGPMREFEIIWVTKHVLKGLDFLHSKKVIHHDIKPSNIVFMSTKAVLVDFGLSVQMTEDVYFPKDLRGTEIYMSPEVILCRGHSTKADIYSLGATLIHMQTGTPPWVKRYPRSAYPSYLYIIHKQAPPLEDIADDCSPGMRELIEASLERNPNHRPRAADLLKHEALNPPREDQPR

Consider `CN(c1cccc([C@H](Nc2cc(Cl)c3ncc(C#N)c(Nc4ccc(F)c(Cl)c4)c3c2)c2cn(C3CCN(C(C)(C)C)CC3)nn2)c1)S(C)(=O)=O` [Example 568, (S)-N-(3-((1-(1-(tert-butyl)piperidin-4-yl)-1H-1,2,3-triazol-4-yl)((8-chloro-4-((3-chloro-4-fluorophenyl)amino)-3-cyanoquinolin-6-yl)amino)methyl)phenyl)-N-methylmethanesulfonamide], for which, in test [1] (setting [3]), the EC50 stood at 143 nM. For the same compound, the IC50 in test [2] (setting [4]) turned out to be 2 nM.

As for `N#Cc1cnc2c(Cl)cc(N[C@@H](c3ccc(F)cc3)c3cn(C4CC4)nn3)cc2c1NCC1CCCOC1` (stereo partly drawn) [Example 348, 8-chloro-6-(((S)-(1-cyclopropyl-1H-1,2,3-triazol-4-yl)(4-fluorophenyl)methyl)amino)-4-(((tetrahydro-2H-pyran-3-yl)methyl)amino)quinoline-3-carbonitrile], the EC50 in test [1] (setting [3]) came to 1200 nM. For the same compound, the IC50 in test [2] (setting [5]) was 44 nM.

In the case of `[2H][C@](Nc1cc(Cl)c2ncc(C#N)c(N[C@@H](CC#N)c3ccccc3)c2c1)(c1cccc(C#N)c1)c1cn(C2CC2)nn1` [Example 295, 8-chloro-4-(((S)-2-cyano-1-phenylethyl)amino)-6-(((S)-(3-cyanophenyl)(1-cyclopropyl-1H-1,2,3-triazol-4-yl)methyl-d)amino)quinoline-3-carbonitrile], the EC50 in test [1] (setting [3]) is over 10000 nM. The IC50 in test [2] (setting [5]) was 389 nM.

Take `N#Cc1cnc2c(Cl)cc(N[C@@H](c3ccccc3)c3cn(CC(=O)N4CCOCC4)nn3)cc2c1Nc1ccc(F)c(Cl)c1` [Example 746, (S)-8-chloro-4-((3-chloro-4-fluorophenyl)amino)-6-(((1-(2-morpholino-2-oxoethyl)-1H-1,2,3-triazol-4-yl)(phenyl)methyl)amino) quinoline-3-carbonitrile]: in test [1] (setting [3]), the concentration for a half-maximal effect (EC50) stood at 349 nM. For the same compound, the IC50 in test [2] (setting [4]) came to 29 nM.

With `[2H][C@](Nc1cc(C#N)c2ncc(C#N)c(NCC(C)(C)C)c2c1)(c1ccc(F)cc1)c1cn(C)nn1` [Example 209, (S)-6-(((4-fluorophenyl)(1-methyl-1H-1,2,3-triazol-4-yl)methyl-d)amino)-4-(neopentylamino) quinoline-3,8-dicarbonitrile], the EC50 in test [1] (setting [3]) amounted to 83 nM. In test [2] (setting [5]), the IC50 worked out at 3 nM.

Turning to `CC(C)(O)Cn1cc([C@@H](Nc2cc(Cl)c3ncc(C#N)c(Nc4ccc(F)c(Cl)c4)c3c2)c2ccccc2)nn1` [Example 610, (S)-8-chloro-4-((3-chloro-4-fluorophenyl)amino)-6-(((1-(2-hydroxy-2-methylpropyl)-1H-1,2,3-triazol-4-yl)(phenyl)methyl)amino) quinoline-3-carbonitrile], the EC50 in test [1] (setting [3]) worked out at 337 nM. For the same compound, the IC50 in test [2] (setting [4]) worked out at 14 nM.

For `CC(C)(C)N1CCC(n2cc([C@@H](Nc3cc(Cl)c4ncc(C#N)c(NCCCc5ccccc5)c4c3)c3ccc(Cl)cc3)nn2)CC1` [Example 681, (S)-6-(((1-(1-(tert-butyl)piperidin-4-yl)-1H-1,2,3-triazol-4-yl)(4-chlorophenyl)methyl)amino)-8-chloro-4-((3-phenylpropyl)amino)quinoline-3-carbonitrile], the 50% effective concentration (EC50) in test [1] (setting [3]) was determined as 12800 nM. Moreover, the half-inhibitory concentration (IC50) in test [2] (setting [4]) stood at 434 nM.

In the case of `N#Cc1cnc2c(Cl)cc(N[C@@H](c3ccc(Cl)cc3)c3c[nH]nn3)cc2c1Nc1ccc(OCc2ccccc2)c(Cl)c1` [Example 648, (S)-4-((4-(benzyloxy)-3-chlorophenyl)amino)-8-chloro-6-(((4-chlorophenyl)(1H-1,2,3-triazol-4-yl)methyl)amino)quinoline-3-carbonitrile], the concentration giving a half-maximal response (EC50) in test [1] (setting [3]) came out at 4430 nM. The 50% inhibitory concentration (IC50) in test [2] (setting [4]) is over 10000 nM.

As for `[2H]C(Nc1cc(Cl)c2ncc(C#N)c(NC3CCC4CC43)c2c1)(c1ccc(F)cc1)c1cn(C2CC2)nn1` (stereo in doubt) [Example 251, 4-(bicyclo[3.1.0]hexan-2-ylamino)-8-chloro-6-(((S)-(1-cyclopropyl-1H-1,2,3-triazol-4-yl)(4-fluorophenyl)methyl-d)amino)quinoline-3-carbonitrile], the concentration for a half-maximal effect (EC50) in test [1] (setting [3]) came to 1280 nM. Besides, the IC50 in test [2] (setting [5]) turned out to be 105 nM.

Regarding `CC(C)(C)CNc1c(C#N)cnc2c(Br)cc(N[C@@H](c3cccc(-c4ncco4)c3)c3cn(C4CC4)nn3)cc12` [Example 83, (S)-8-bromo-6-(((1-cyclopropyl-1H-1,2,3-triazol-4-yl) (3-(oxazol-2-yl)phenyl)methyl)amino)-4-(neopentylamino) quinoline-3-carbonitrile], in test [1] (setting [3]), the EC50 was 165 nM. Also, the half-inhibitory concentration (IC50) in test [2] (setting [5]) was 2 nM.

Turning to `[2H][C@](Nc1cc(F)c2ncc(C#N)c(N[C@H](CC)c3ccccc3)c2c1)(c1cccc(C#N)c1)c1cn(C2CC2)nn1` [Example 257, 6-(((S)-(3-cyanophenyl)(1-cyclopropyl-1H-1,2,3-triazol-4-yl)methyl-d)amino)-8-fluoro-4-(((R)-1-phenylpropyl)amino)quinoline-3-carbonitrile], the EC50 in test [1] (setting [3]) stood at 93 nM. The IC50 in test [2] (setting [5]) was determined as 3 nM.

`CC(C)(C)CNc1c(C#N)cnc2c(F)cc(N[C@H](c3cn(C(F)(F)C(N)=O)nn3)c3ccccc3Cl)cc12` [Example 1001, (S)-2-(4-((2-chlorophenyl)((3-cyano-8-fluoro-4-(neopentylamino)quinolin-6-yl)amino)methyl)-1H-1,2,3-triazol-1-yl)-2,2-difluoroacetamide]: in test [1] (setting [6]), the half-maximal effective concentration (EC50) was 344 nM. For the same compound, the IC50 in test [2] (setting [7]) is 22 nM.

For the compound `CC(C)(C)CNc1c(C#N)cnc2c(C#N)cc(N[C@H](c3cn(C4CC4)nn3)c3ccccc3Cl)cc12` [Example 211, (S)-6-(((2-chlorophenyl)(1-cyclopropyl-1H-1,2,3-triazol-4-yl)methyl)amino)-4-(neopentylamino) quinoline-3,8-dicarbonitrile], in test [1] (setting [3]), the EC50 stood at 173 nM. Moreover, the half-inhibitory concentration (IC50) in test [2] (setting [5]) was determined as 6 nM.

For the compound `CC(C)(CNc1c(C#N)cnc2c(Cl)cc(N[C@@H](c3ccc(F)cc3)c3cn(C4CC4)nn3)cc12)c1ccccc1` [Example 350, (S)-8-chloro-6-(((1-cyclopropyl-1H-1,2,3-triazol-4-yl)(4-fluorophenyl)methyl)amino)-4-((2-methyl-2-phenylpropyl)amino) quinoline-3-carbonitrile], the 50% effective concentration (EC50) in test [1] (setting [3]) worked out at 387 nM. For the same compound, the IC50 in test [2] (setting [5]) was determined as 9 nM.

On to `[2H][C@](Nc1cc(Cl)c2ncc(C#N)c(N[C@H](CC)c3ccccc3)c2c1)(c1ccc(F)cc1)c1cn(C(C)(C)C)nn1` [Example 253], for which, in test [1] (setting [3]), the concentration giving a half-maximal response (EC50) turned out to be 214 nM. For the same compound, the half-maximal inhibitory concentration (IC50) in test [2] (setting [5]) came to 16 nM.

For `Cc1c(-c2cnco2)cccc1[C@H](Nc1cc(C#N)c2ncc(C#N)c(NCC(C)(C)C)c2c1)c1cn(C2(C(F)(F)F)CC2)nn1` [Example 1131, (S)-6-(((2-methyl-3-(oxazol-5-yl)phenyl)(1-(1-(trifluoromethyl)cyclopropyl)-1H-1,2,3-triazol-4-yl)methyl)amino)-4-(neopentylamino)quinoline-3,8-dicarbonitrile], in test [1] (setting [6]), the concentration giving a half-maximal response (EC50) stood at 38 nM. Further, the half-maximal inhibitory concentration (IC50) in test [2] (setting [7]) is 3 nM.

For the compound `[2H][C@](Nc1cc(Cl)c2ncc(C#N)c(NCC(C)(C)C)c2c1)(c1cn(CC#N)nn1)c1ccccc1Cl` [Example 119, 8-chloro-6-(((2-chlorophenyl)(1-(cyanomethyl)-1H-1,2,3-triazol-4-yl)methyl-d)amino)-4-(neopentylamino) quinoline-3-carbonitrile], the EC50 in test [1] (setting [3]) came out at 166 nM. For the same compound, the IC50 in test [2] (setting [5]) came to 26 nM.

For `[2H][C@](Nc1cc(Cl)c2ncc(C#N)c(Nc3cnc(F)c(F)c3)c2c1)(c1cccc(C#N)c1)c1cn(C2CC2)nn1` [Example 369, (S)-8-chloro-6-(((3-cyanophenyl)(1-cyclopropyl-1H-1,2,3-triazol-4-yl)methyl-d)amino)-4-((5,6-difluoropyridin-3-yl)amino)quinoline-3-carbonitrile], the EC50 in test [1] (setting [3]) was determined as 93 nM. Moreover, the half-maximal inhibitory concentration (IC50) in test [2] (setting [5]) is 4 nM.

On to `N#Cc1cnc2c(Cl)cc(N[C@@H](c3ccc(F)cc3)c3cn(C4CCN(CC(F)(F)F)CC4)nn3)cc2c1Nc1ccc(F)c(Cl)c1` [Example 828, (S)-8-chloro-4-((3-chloro-4-fluorophenyl)amino)-6-(((4-fluorophenyl)(1-(1-(2,2,2-trifluoroethyl)piperidin-4-yl)-1H-1,2,3-triazol-4-yl)methyl)amino)quinoline-3-carbonitrile], for which, in test [1] (setting [3]), the EC50 was 1150 nM. Further, in test [2] (setting [4]), the IC50 was determined as 297 nM.

As for `CC1(n2cc([C@@H](Nc3cc(Cl)c4ncc(C#N)c(Nc5cnc(F)c(F)c5)c4c3)c3ccc(F)cc3)nn2)COC1` [Example 403, (S)-8-chloro-4-((5,6-difluoropyridin-3-yl)amino)-6-(((4-fluorophenyl) (1-(3-methyloxetan-3-yl)-1H-1,2,3-triazol-4-yl)methyl)amino)quinoline-3-carbonitrile], the EC50 in test [1] (setting [3]) is 532 nM. The IC50 in test [2] (setting [5]) amounted to 15 nM.

With `CC(C)(C)CNc1c(C#N)cnc2c(C#N)cc(N[C@H](c3cn(C4(C#N)CC4)nn3)c3cccc(C#N)c3Cl)cc12` [Example 1027, (S)-6-(((2-chloro-3-cyanophenyl)(1-(1-cyanocyclopropyl)-1H-1,2,3-triazol-4-yl)methyl)amino)-4-(neopentylamino)quinoline-3,8-dicarbonitrile], the 50% effective concentration (EC50) in test [1] (setting [6]) was determined as 141 nM. Besides, in test [2] (setting [7]), the IC50 stood at 4 nM.

In general, EC50 refers to the concentration giving half of the maximal effect. As a reminder, the IC50 is the concentration at which inhibition is half-maximal.

The values above are taken from patent US10316017B2, “COT modulators and methods of use thereof” (Gilead Sciences, Inc., priority 2015, dated 2019).
